Measured values published in article PMC11729362, “Icariside II Preparation from Icariin Separated from Epimedium Herbal Extract Powder by a Special Icariin Glycosidase” (Journal of Microbiology and Biotechnology, 2024).

Tested on: T1, special icariin glycosidase
T1 construct: gene icariin 7-O-glucosidase; native enzyme purified from culture supernatant (methanol precipitation, DEAE-cellulose DE-52); about 75 kDa by SDS-PAGE
Experiment: Lineweaver-Burk; HPLC and TLC of products and substrate
Type: biochemical, Aspergillus sp. y48
Conditions: 45 °C, 9 h reaction, 0.4-2.0 mmol/L icariin; purified free enzyme

COc1ccc(-c2oc3c(CC=C(C)C)c(O[C@@H]4O[C@H](CO)[C@@H](O)[C@H](O)[C@H]4O)cc(O)c3c(=O)c2O[C@@H]2O[C@@H](C)[C@H](O)[C@@H](O)[C@H]2O)cc1 [icariin]
Km: 3.55 mM
